Molecules are shown by their SMILES.

The target in this assay is T1, h-5-HT6 receptor (Homo sapiens, UniProt P50406).
T1 construct: expressed in transfected cells; host or cells: HEK293 cells (membrane preparation)
T1 sequence (P50406 whole entry): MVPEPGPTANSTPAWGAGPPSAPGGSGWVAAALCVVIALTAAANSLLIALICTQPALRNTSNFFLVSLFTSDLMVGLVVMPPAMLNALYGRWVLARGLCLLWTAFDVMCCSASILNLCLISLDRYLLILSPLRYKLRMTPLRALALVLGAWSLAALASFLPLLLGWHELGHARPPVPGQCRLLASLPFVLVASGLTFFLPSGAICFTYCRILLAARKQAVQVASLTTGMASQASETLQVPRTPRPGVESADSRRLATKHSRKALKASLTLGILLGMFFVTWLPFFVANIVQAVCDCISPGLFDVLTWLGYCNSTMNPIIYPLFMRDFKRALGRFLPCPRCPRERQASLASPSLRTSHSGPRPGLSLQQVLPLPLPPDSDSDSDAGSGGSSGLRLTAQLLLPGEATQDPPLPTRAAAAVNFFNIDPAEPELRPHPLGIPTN
The assay is described as follows: Human 5-HT6 receptor radioligand binding assay ([3H]-LSD, HEK293 membranes). The following applies: HEK293 membranes, 1 nM [3H]-lysergic acid diethylamide, 3.5 hours at room temperature; read-out: Ki (μM), 5-HT6 Agonist Site Radioligand Binding. The procedure:
(iv) Human 5-HT6 Receptor Radioligand Binding Assay
Preparation of Membranes by Ultrasonic Treatment and Differential Centrifugation
Cells from stable clonal cell lines expressing the corresponding receptor (5-HT6) were washed with PBS (without Ca^++, Mg^++) and harvested in PBS with 0.02% EDTA. The cells were collected by centrifugation at 500 g for 10 minutes at 4° C., washed with PBS and centrifuged (500 g, 10 minutes at 4° C.). The pellets were stored at −80° C. until use. For membrane preparation, the thawed cell pellet was resuspended in ice-cold sucrose buffer (0.25 M sucrose, 10 mM HEPES (pH 7.4), 1 mM phenylmethylsulfonyl fluoride (PMSF) in DMSO, 5 μg/ml Pepstatin-A, 3 mM EDTA, 0.025% Bacitracin) and homogenized with a Branson Sonifier W-250 (Settings: Timer 4; Output Control 3; Duty Cycle constant; 2 to 3 cycles). Cell disruption was checked with the aid of a microscope. Remaining unbroken cells were pelleted at 1,000 g for 10 minutes at 4° C. The sucrose buffer supernatant was then centrifuged at 60,000 g for 1 hour at 4° C. (Beckman Ultrazentrifuge XL 80). The pellet was resuspended in 30 mL of ice-cold Tris buffer (20 mM TRIS (pH 7.4), 5 μg/mL Pepstatin A, 0.1 mM PMSF, 3 mM EDTA) by pipetting through a 10 mL serological pipet and centrifuged for 1 hour at 4° C. at 60,000 g. A final resuspension was performed in a small volume of ice-cold Tris buffer (see above) by pressing through a serological pipet followed by ultrasonic treatment with a Branson Sonifier W-250 (Settings: Timer 1; Output Control 3; Duty Cycle constant; 1 cycle). Protein concentration was determined (BCA-Kit; Pierce) and aliquots stored at −80° C. or in liquid nitrogen for long-term storage.
Receptor Binding Experiments
All receptor binding experiments were carried out in the corresponding assay buffer in a total volume of 200 μL in the presence of various concentrations of test compound (10^−5 M to 10^−9 M, tenfold serial dilution, duplicate determinations). The assays were terminated by filtration on polyethylenimine (PEI 0.1% or 0.3%) presoaked Packard Unifilter Plates (GF/C or GF/B) with a Tomtec MachIII U 96 well-plate harvester. After the plates had been dried for 2 hours at 55° C. in a drying chamber scintillation cocktail (BetaPlate Scint; PerkinElmer) was added. Radioactivity was measured in a Microbeta Trilux two hours after the addition of the scintillation mixture.
5-HT6 Receptor Binding Assay
HEK293 cells stably expressing the h-5-HT6 receptor (NCBI Reference Sequence XM 001435) were cultured in RPMI1640 medium supplemented with 25 mM HEPES, 10% fetal calf serum and 1-2 mM glutamine. The membrane preparation was performed as described above. […] On the day of the assay, the membranes were thawed, diluted in assay buffer (50 mM Tris-HCl, 5 mM CaCl2, 0.1% ascorbic acid, 10 μM pargyline, pH 7.4) to a concentration of 8 μg protein/assay and homogenized by gentle vortexing. […] Non-specific binding was defined with 1 μM methiothepin. The binding reaction was carried out for 3.5 hours at room temperature. During the incubation, the plates were shaken on a plate shaker at 100 rpm and terminated by filtration on Packard Unifilter GF/C (0.1% PEI) plates, followed by 2 wash cycles with ice-cold 50 mM Tris-HCl, 5 mM CaCl2.
Data derived from liquid scintillation counting were analyzed by iterative non-linear regression analysis with the use of the Statistical Analysis System (SAS): a program similar to “LIGAND” as described by Munson and Rodbard (Anal. Biochem. 1980, 107, 220-239). Fitting was performed according to formulae described by Feldman (Anal. Biochem. 1972, 48, 317-338). IC50, nH and Ki values were expressed as geometrical mean.
The results of the receptor binding studies are expressed as receptor binding constants Ki(5-HT6) as described herein before, and given in Table 5.
One may read the Ki as the equilibrium dissociation constant of an inhibitor or competing ligand from its target. In the case of `Cc1ccc(S(=O)(=O)Nc2ccc3c(c2)NC(=O)CC2CNCCN32)cc1` (stereo not shown) [Example 99, 4-methyl-N-(6-oxo-1,2,3,4,4a,5,6,7-octahydropyrazino[1,2-a][1,5]benzodiazepin-9-yl)benzenesulfonamide], the inhibition constant (Ki) was found to be 0.0221 µM.
As for `COc1ccccc1S(=O)(=O)Nc1ccc2c(c1)NC(=O)CC1CNCCN21` (stereo not shown) [Example 106, 2-methoxy-N-(6-oxo-1,2,3,4,4a,5,6,7-octahydropyrazino[1,2-a][1,5]benzodiazepin-9-yl)benzenesulfonamide], the figure is 0.026 µM.
As for `O=C1CC2CNCCN2c2ccc(NS(=O)(=O)c3ccc(Cl)cc3)cc2N1` (stereo not shown) [Example 102, 4-chloro-N-(6-oxo-1,2,3,4,4a,5,6,7-octahydropyrazino[1,2-a][1,5]benzodiazepin-9-yl)benzenesulfonamide], the figure is 0.0092 µM; as for `O=C1CC2CNCCN2c2ccc(NS(=O)(=O)c3ccccc3F)cc2N1` (stereo not shown) [Example 103, 2-fluoro-N-(6-oxo-1,2,3,4,4a,5,6,7-octahydropyrazino[1,2-a][1,5]benzodiazepin-9-yl)benzenesulfonamide], 0.0299 µM.
For `Cc1cccc(S(=O)(=O)Nc2ccc3c(c2)NC(=O)CC2CNCCN32)c1` (stereo not shown) [Example 100, 3-methyl-N-(6-oxo-1,2,3,4,4a,5,6,7-octahydropyrazino[1,2-a][1,5]benzodiazepin-9-yl)benzenesulfonamide], the Ki was 0.0475 µM.
As for `O=C1CC2CNCCN2c2ccc(NS(=O)(=O)c3cccc(F)c3)cc2N1` (stereo not shown) [Example 104, 3-fluoro-N-(6-oxo-1,2,3,4,4a,5,6,7-octahydropyrazino[1,2-a][1,5]benzodiazepin-9-yl)benzenesulfonamide], the figure is 0.0596 µM; as for `Cc1ccc(C)c(S(=O)(=O)Nc2ccc3c(c2)NC(=O)CC2CNCCN32)c1` (stereo not shown) [Example 125, 2,5-dimethyl-N-(6-oxo-1,2,3,4,4a,5,6,7-octahydropyrazino[1,2-a][1,5]benzodiazepin-9-yl)benzenesulfonamide], 0.0156 µM.
For the molecule `O=C1CC2CNCCN2c2ccc(NS(=O)(=O)c3ccccc3C(F)(F)F)cc2N1` (stereo not shown) [Example 126, N-(6-oxo-1,2,3,4,4a,5,6,7-octahydropyrazino[1,2-a][1,5]benzodiazepin-9-yl)-2-(trifluoromethyl)benzenesulfonamide], the Ki is 0.0234 µM.
The value for `O=C1CC2CNCCN2c2ccc(NS(=O)(=O)c3cccc(OC(F)(F)F)c3)cc2N1` (stereo not shown) [Example 120, N-(6-oxo-1,2,3,4,4a,5,6,7-octahydropyrazino[1,2-a][1,5]benzodiazepin-9-yl)-3-(trifluoromethoxy)benzenesulfonamide] was 0.0183 µM; that for `N#Cc1cccc(S(=O)(=O)Nc2ccc3c(c2)NC(=O)CC2CNCCN32)c1` (stereo not shown) [Example 122, 3-cyano-N-(6-oxo-1,2,3,4,4a,5,6,7-octahydropyrazino[1,2-a][1,5]benzodiazepin-9-yl)benzenesulfonamide] was 0.19 µM.
With `N#Cc1ccc(S(=O)(=O)Nc2ccc3c(c2)NC(=O)CC2CNCCN32)cc1` (stereo not shown) [Example 121, 4-cyano-N-(6-oxo-1,2,3,4,4a,5,6,7-octahydropyrazino[1,2-a][1,5]benzodiazepin-9-yl)benzenesulfonamide], the Ki was 0.621 µM.
As for `Cc1cc(C)cc(S(=O)(=O)Nc2ccc3c(c2)NC(=O)CC2CNCCN32)c1` (stereo not shown) [Example 129, 3,5-dimethyl-N-(6-oxo-1,2,3,4,4a,5,6,7-octahydropyrazino[1,2-a][1,5]benzodiazepin-9-yl)benzenesulfonamide], the figure is 0.0132 µM; as for `O=C1CC2CNCCN2c2ccc(NS(=O)(=O)c3ccc(F)cc3)cc2N1` (stereo not shown) [Example 105, 4-fluoro-N-(6-oxo-1,2,3,4,4a,5,6,7-octahydropyrazino[1,2-a][1,5]benzodiazepin-9-yl)benzenesulfonamide], 0.0208 µM.
As for `O=C1CC2CNCCN2c2ccc(NS(=O)(=O)c3cccc(Cl)c3)cc2N1` (stereo not shown) [Example 101, 3-chloro-N-(6-oxo-1,2,3,4,4a,5,6,7-octahydropyrazino[1,2-a][1,5]benzodiazepin-9-yl)benzenesulfonamide], the figure is 0.0223 µM.
As to `COc1ccc(S(=O)(=O)Nc2ccc3c(c2)NC(=O)CC2CNCCN32)cc1` (stereo not shown) [Example 108, 4-methoxy-N-(6-oxo-1,2,3,4,4a,5,6,7-octahydropyrazino[1,2-a][1,5]benzodiazepin-9-yl)benzenesulfonamide], the Ki is 0.0669 µM.
As to `O=C1CC2CNCCN2c2ccc(NS(=O)(=O)c3ccc(Cl)s3)cc2N1` (stereo not shown) [Example 127, 5-chloro-N-(6-oxo-1,2,3,4,4a,5,6,7-octahydropyrazino[1,2-a][1,5]benzodiazepin-9-yl)thiophene-2-sulfonamide], the inhibition constant (Ki) was 0.0443 µM.
As to `O=C1CC2CNCCN2c2ccc(NS(=O)(=O)c3c(F)cccc3F)cc2N1` (stereo not shown) [Example 123, 2,6-difluoro-N-(6-oxo-1,2,3,4,4a,5,6,7-octahydropyrazino[1,2-a][1,5]benzodiazepin-9-yl)benzenesulfonamide], the Ki is 0.0583 µM.
Take `O=C1CC2CNCCN2c2ccc(NS(=O)(=O)c3cccs3)cc2N1` (stereo not shown) [Example 109, N-(6-oxo-1,2,3,4,4a,5,6,7-octahydropyrazino[1,2-a][1,5]benzodiazepin-9-yl)thiophene-2-sulfonamide]: the inhibitory constant (Ki) was 0.0556 µM.
On to `O=C1CC2CNCCN2c2ccc(NS(=O)(=O)c3ccccc3-c3ccccc3)cc2N1` (stereo not shown) [Example 97, N-(6-oxo-1,2,3,4,4a,5,6,7-octahydropyrazino[1,2-a][1,5]benzodiazepin-9-yl)biphenyl-2-sulfonamide], for which the Ki was found to be 0.0024 µM.
Turning to `O=C1CC2CNCCN2c2ccc(NS(=O)(=O)c3cccc4ccccc34)cc2N1` (stereo not shown) [Example 124, N-(6-oxo-1,2,3,4,4a,5,6,7-octahydropyrazino[1,2-a][1,5]benzodiazepin-9-yl)napthalene-1-sulfonamide], the Ki stood at 0.0068 µM.
As for `O=C1CC2CNCCN2c2ccc(NS(=O)(=O)c3ccccc3OC(F)(F)F)cc2N1` (stereo not shown) [Example 130, N-(6-oxo-1,2,3,4,4a,5,6,7-octahydropyrazino[1,2-a][1,5]benzodiazepin-9-yl)-2-(trifluoromethoxy)benzenesulfonamide], the figure is 0.0181 µM.
The value for `O=C1CC2CNCCN2c2ccc(NS(=O)(=O)c3ccc4ccccc4c3)cc2N1` (stereo not shown) [Example 128, N-(6-oxo-1,2,3,4,4a,5,6,7-octahydropyrazino[1,2-a][1,5]benzodiazepin-9-yl)naphthalene-2-sulfonamide] was 0.0043 µM.
The value for `O=C1CC2CNCCN2c2ccc(NS(=O)(=O)c3c(Cl)cccc3Cl)cc2N1` (stereo not shown) [Example 119, 2,6-dichloro-N-(6-oxo-1,2,3,4,4a,5,6,7-octahydropyrazino[1,2-a][1,5]benzodiazepin-9-yl)benzenesulfonamide] was 0.0378 µM.
As for `Cc1ccccc1S(=O)(=O)Nc1ccc2c(c1)NC(=O)CC1CNCCN21` (stereo not shown) [Example 98, 2-methyl-N-(6-oxo-1,2,3,4,4a,5,6,7-octahydropyrazino[1,2-a][1,5]benzodiazepin-9-yl)benzenesulfonamide], the inhibition constant (Ki) was found to be 0.0224 µM.
As for `COc1cccc(S(=O)(=O)Nc2ccc3c(c2)NC(=O)CC2CNCCN32)c1` (stereo not shown) [Example 107, 3-methoxy-N-(6-oxo-1,2,3,4,4a,5,6,7-octahydropyrazino[1,2-a][1,5]benzodiazepin-9-yl)benzenesulfonamide], the figure is 0.022 µM.

Values taken from US8546377B2 (AbbVie Inc., priority 2009, dated 2013).
